Tests used:
[1] = test system: Mouse polyclonal antibody Rapa-27 #12 (Rapa-27-ox-DVS-KLH immunogen); assay: Inhibition ELISA of mouse polyclonal serum Rapa-27 #12; set-up: concentration or dose not given beside the values; conditions: binding to Rapa-27-HSA
Method: (§1) Inhibition ELISA Protocol
(§2) 1. Use Falcon® Pro-bind™ inununoplates.
(§3) 2. Dilute coating antigen to 1 μg/mL in carbonate-bicarbonate buffer.
(§4) Add 100 μL per well and incubate overnight at 4° C.
(§5) 3. On the same day prepare inhibiting antigen tubes. Aliquot antibodies into glass test tubes. Prepare appropriate antigen concentration in ethanol and add to aliquoted antibody at 10 μL ethanol solution/250 μL antibody.
(§6) Vortex tubes and incubate overnight at 4° C.
(§7) 4. Shake out wells and wash 3× with 200 μL PBS/0.05% TWEEN™ (polyoxyethylene-sorbitol) (v/v) per well.
(§8) 5. Add 200 μL blocking buffer per well (PBS/2% BSA (w/v)).
(§9) Incubate 60 min at room temperature.
(§10) 7. Transfer contents of inhibition tubes to antigen-coated plate, 100 μL per well. Incubate 60 min at 37° C.
(§11) 9. […] Add 100 μL per well and incubate at 37° C. for 60 min.
(§12) 11. […] Add 100 μL per well and incubate in the dark at room temperature. Absorbance can be read at 405 nm at approximately 15-min intervals.

[2] = test system: MoAb R-4-1; assay: Inhibition ELISA of MoAb R-4-1; assay type: binding, mouse; conditions: for Percent inhibition of MoAb R-4-1: tissue culture supernatant
Method: as §1, §2, §3, §4, §5, §6, §7, §8, §9, §10, §11, §12

[3] = test system: Chicken polyclonal antibody (IgY, Rapa-42-DVS-KLH immunogen); assay: Inhibition ELISA of chicken IgY prep; assay type: binding; set-up: concentration or dose not given beside the values; conditions: Rapa antigen coated ELISA plate
Method: as §1, §2, §3, §4, §5, §6, §7, §8, §9, §10, §11, §12

[4] = test system: MoAb R-1-1; assay: Inhibition ELISA of MoAb R-1-1; assay type: binding, mouse; set-up: concentration or dose not given beside the values; conditions: tissue culture supernatant
Method: as §1, §2, §3, §4, §5, §6, §7, §8, §9, §10, §11, §12
(§13) To further characterize the reactivity of monoclonal antibodies from various clones, inhibition ELISA were performed.

[5] = test system: MoAb R-1-5; assay: Inhibition ELISA of MoAb R-1-5; assay type: binding, mouse; set-up: concentration or dose not given beside the values; conditions: tissue culture supernatant
Method: as §1, §2, §3, §4, §5, §6, §7, §8, §9, §10, §11, §12, §13

[6] = test system: MoAb R-6-3; assay: Inhibition ELISA of MoAb R-6-3; assay type: binding, mouse
Method: as §1, §2, §3, §4, §5, §6, §7, §8, §9, §10, §11, §12

[7] = test system: MoAb R-2-2; assay: Inhibition ELISA of MoAb R-2-2; assay type: binding, mouse; set-up: concentration or dose not given beside the values; conditions: tissue culture supernatant
Method: as §1, §2, §3, §4, §5, §6, §7, §8, §9, §10, §11, §12, §13

[8] = test system: MoAb R-5-3; assay: Inhibition ELISA of MoAb R-5-3; assay type: binding, mouse; conditions: for Percent inhibition of MoAb R-5-3: tissue culture supernatant
Method: as §1, §2, §3, §4, §5, §6, §7, §8, §9, §10, §11, §12

[9] = test system: Mouse polyclonal antibody Rapa-DVS #9; assay: Inhibition ELISA of mouse polyclonal serum Rapa-DVS #9; assay type: binding; set-up: concentration or dose not given beside the values
Method: as §1, §2, §3, §4, §5, §6, §7, §8, §9, §10, §11, §12

[10] = test system: MoAb R-3-1; assay: Inhibition ELISA of MoAb R-3-1; assay type: binding, mouse; set-up: concentration or dose not given beside the values; conditions: tissue culture supernatant
Method: as §1, §2, §3, §4, §5, §6, §7, §8, §9, §10, §11, §12, §13

[11] = test system: MoAb R-4-7; assay: Inhibition ELISA of MoAb R-4-7; assay type: binding, mouse; conditions: for Percent inhibition of MoAb R-4-7: tissue culture supernatant
Method: as §1, §2, §3, §4, §5, §6, §7, §8, §9, §10, §11, §12

[12] = test system: Rabbit #1 polyclonal antibody (Rapa-42-DVS-KLH immunogen); assay: Inhibition ELISA of rabbit #1 polyclonal serum; assay type: binding; set-up: concentration or dose not given beside the values; conditions: Rapa antigen coated ELISA plate
Method: as §1, §2, §3, §4, §5, §6, §7, §8, §9, §10, §11, §12

[13] = test system: MoAb R-6-2; assay: Inhibition ELISA of MoAb R-6-2; assay type: binding, mouse
Method: as §1, §2, §3, §4, §5, §6, §7, §8, §9, §10, §11, §12

[14] = test system: Mouse polyclonal antibody Rapa-DVS #7; assay: Inhibition ELISA of mouse polyclonal serum Rapa-DVS #7; assay type: binding; set-up: concentration or dose not given beside the values
Method: as §1, §2, §3, §4, §5, §6, §7, §8, §9, §10, §11, §12

[15] = Relative concentrations of Rapa metabolites in pooled whole blood patient samples (LC/MS); assay type: in vivo; conditions: Rapa = 1
Source text: No individual metabolite is found at a concentration greater than 20% of the Rapa parent level.

[16] = test system: lymphocytes; assay: In vitro mixed lymphocyte reaction (MLR) assay, two-way lymphocyte proliferation; assay type: cell-based; conditions: 3H-thymidine incorporation
Source text: The MLR assay is useful for identifying rapamycin metabolites with biological (immunosupressive) activity and to quantify this activity relative to the immunosuppressive activity of the parent rapamycin molecule.
An example of a two-way lymphocyte proliferation assay procedure useful for this purpose is as follows:
1. Collect blood from two individuals (20 mls each) and isolate lymphocytes using Ficoll-Paque™ (polysucrose and sodium diatrizoate) (Pharmacia Biotech).
2. Count lymphocytes at 1:10 dilution in 2% acetic acid (v/v).
3. Prepare 10 mls of each lymphocyte populations (A+B) at 1×10^6 cells/ml in DMEM/20% FCS (v/v).
4. Set up a 96 well sterile tissue culture plate, flat bottom (Sarstedt, cat # 83.1835). To each well add:
5. Aliquot 100 μl per well lymphocyte population A
6. Aliquot 100 μl per well lymphocyte population B
7. Aliquot 20 μl per well of drug (rapamycin and rapamycin metabolites M1-5) serially diluted 0 to 1000 μg/L in triplicate in DMEM with no supplements.
8. […]
10. […] Wash cells 3× with 1.0-ml sterile distilled water.
Note: All procedures are done using sterile techniques in a biological flow hood.
11. Place filters in Scintilation vials and add 1.5 mls of ScintiSafe Plus™ 50% scintillation fluid (Fisher, cat #SX-25-5).
12. Measure the amount of radioactivity incorporated in the lymphocytes using a beta counter (Micromedic System Inc., TAURUS™ Automatic Liquid Scintillation Counter) for 1.0 minute.
13. Calculate averages and standard deviations for each drug and express results as: [formula]

Row | Compound | Relative Concentration in whole blood [15] | Percent inhibition of mouse polyclonal antibody Rapa-27 #12 [1] [%] | Percent inhibition of MoAb R-4-1 [2] [%] | Percent inhibition of Chicken polyclonal antibody [3] [%] | Percent inhibition of MoAb R-1-1 [4] [%] | Percent inhibition of MoAb R-1-5 [5] [%] | Percent inhibition of MoAb R-6-3 [6] [%] | Percent inhibition of MoAb R-2-2 [7] [%] | Percent inhibition of MoAb R-5-3 [8] [%] | Percent inhibition of mouse polyclonal antibody Rapa-DVS #9 [9] [%] | Percent inhibition of MoAb R-3-1 [10] [%] | Percent inhibition of MoAb R-4-7 [11] [%] | Percent inhibition of Rabbit #1 polyclonal antibody [12] [%] | Percent inhibition of MoAb R-6-2 [13] [%] | Percent inhibition of mouse polyclonal antibody Rapa-DVS #7 [14] [%] | Mixed Lymphocyte Reaction IC50, Mean [16] [ng/mL] | other results
1 | C=CC[C@@H]1/C=C(\C)C[C@H](C)C[C@H](OC)[C@H]2O[C@@](O)(C(=O)C(=O)N3CCCC[C@H]3C(=O)O[C@H](/C(C)=C/[C@@H]3CC[C@@H](O)[C@H](OC)C3)[C@H](C)[C@@H](O)CC1=O)[C@H](C)C[C@@H]2OC [FK, FK-506] |  | 11 | 8 | 0 | 43 | 33 | 53 | 16 | 4 | 13.0 | 1 | 4 | 0 | 64 | 5.6 |  | 
2 | CO[C@H]1C[C@@H]2CC[C@@H](C)[C@@](O)(O2)C(=O)C(=O)N2CCCC[C@H]2C(=O)O[C@H]([C@H](C)C[C@@H]2CC[C@@H](OCCO)[C@H](OC)C2)CC(=O)[C@H](C)/C=C(\C)[C@@H](O)[C@@H](OC)C(=O)[C@H](C)C[C@H](C)/C=C/C=C/C=C/1C [RAD] |  |  |  |  |  |  | 58 |  |  |  |  |  |  | 70 |  |  | Inhibition of MoAb R-4-1 (in words) ([2]; purified MoAb, increasing concentrations of Rapa or RAD, FIG. 3A): inhibited; Inhibition of MoAb R-5-3 (in words) ([8]; purified MoAb, increasing concentrations of Rapa or RAD, FIG. 3B): inhibited; Inhibition of MoAb R-4-7 (in words) [11]: inhibited
3 | keyhole limpet hemocyanin [KLH] |  | 0 |  | 0 | 3 | 10 |  | 16 |  | 12.5 | 0 |  | 0 |  | 7.8 |  | 

Second part, led by results:

Row | Relative Concentration in whole blood [15] | Compound | Percent inhibition of mouse polyclonal antibody Rapa-27 #12 [1] [%] | Percent inhibition of MoAb R-4-1 [2] [%] | Percent inhibition of Chicken polyclonal antibody [3] [%] | Percent inhibition of MoAb R-1-1 [4] [%] | Percent inhibition of MoAb R-1-5 [5] [%] | Percent inhibition of MoAb R-6-3 [6] [%] | Percent inhibition of MoAb R-2-2 [7] [%] | Percent inhibition of MoAb R-5-3 [8] [%] | Percent inhibition of mouse polyclonal antibody Rapa-DVS #9 [9] [%] | Percent inhibition of MoAb R-3-1 [10] [%] | Percent inhibition of MoAb R-4-7 [11] [%] | Percent inhibition of Rabbit #1 polyclonal antibody [12] [%] | Percent inhibition of MoAb R-6-2 [13] [%] | Percent inhibition of mouse polyclonal antibody Rapa-DVS #7 [14] [%] | Mixed Lymphocyte Reaction IC50, Mean [16] [ng/mL] | other results
4 | 0.10 | CO[C@@H]1C[C@H](C[C@@H](C)[C@@H]2CC(=O)[C@H](C)/C=C(\C)[C@@H](O)[C@@H](OC)C(=O)[C@H](C)C[C@H](C)/C=C/C=C/C=C(\C)[C@@H](O)C[C@@H]3CC[C@@H](C)[C@@](O)(O3)C(=O)C(=O)N3CCCC[C@H]3C(=O)O2)CC[C@H]1O [M3, 7-O-Demethyl Rapamycin] |  | 85 | 35 | 32 | 56 |  | 26 | 37 | 30.8 | 92 | 67 | 15 |  | 28.3 | 2.85 | Percent inhibition of mouse polyclonal antibody Rapa-27 #12 ([1]; listed as Met 3): 43%; Percent inhibition of mouse polyclonal antibody Rapa-27 #12 ([1]; listed as metabolite # 3): 42%
5 | 0.10 | CO[C@H]1C[C@@H]2CC[C@@H](C)[C@@](O)(O2)C(=O)C(=O)N2CCCC[C@H]2C(=O)O[C@H]([C@H](C)C[C@@H]2CC[C@@H](O)[C@H](O)C2)CC(=O)[C@H](C)/C=C(\C)[C@@H](O)[C@@H](OC)C(=O)[C@H](C)C[C@H](C)/C=C/C=C/C=C/1C [M4, 41-O-Demethyl Rapamycin] | 37 | 82 | 18 | 30 | 57 |  | 71 | 47 | 28.6 | 96 | 54 | 28 |  | 40.1 | 5.9 | 
6 | 0.02 | CO[C@H]1C[C@@H]2CC[C@@H](C)[C@@](O)(O2)C(=O)C(=O)N2CCCC[C@H]2C(=O)O[C@H]([C@H](C)C[C@@H]2CC[C@@H](O)[C@H](O)C2)CC(=O)[C@H](C)/C=C(\C)[C@@H](O)[C@@H](O)C(=O)[C@H](C)C[C@H](C)/C=C/C=C/C=C/1C [M5, 32,41-Demethyl Rapamycin] | 0 | 88 | 35 | 29 | 44 |  | 10 | 46 | 37.3 | 94 | 87 | 16 |  | 39.8 | 4.67 | 
